“And” between values parts separate entries of the source, which are not always exact repeats. Equal entries are not always repeated. ± gives the expanded uncertainty stated by the source.
How the values were obtained:
[1] = refractive index (Na D-line) (dimensionless); conditions: 101.33 kPa, Liquid, Standard Abbe refractometry
[2] = Liquid; for viscosity: Capillary tube (Ostwald / Ubbelohde) method
[3] = xn = mol fraction of the nth substance listed; conditions: Liquid; for viscosity: Capillary tube (Ostwald / Ubbelohde) method
[4] = refractive index (Na D-line) (dimensionless); xn = mol fraction of the nth substance listed; conditions: 100.8 kPa, Liquid, Standard Abbe refractometry

Compound	refractive index ([1]; 288.15 K)	refractive index ([1]; 298.15 K)	refractive index ([1]; 308.15 K)	mass density ([2]; 288.15 K, 100.8 kPa) [kg/m3]	viscosity ([2]; 288.15 K, 100.8 kPa) [mPa·s]	mass density ([2]; 298.15 K, 100.8 kPa) [kg/m3]	viscosity ([2]; 298.15 K, 100.8 kPa) [mPa·s]	mass density ([2]; 308.15 K, 100.8 kPa)	viscosity ([2]; 308.15 K, 100.8 kPa) [mPa·s]	refractive index ([4]; 288.15 K, x2 = 0)	refractive index ([4]; 298.15 K, x2 = 0)	refractive index ([4]; 308.15 K, x2 = 0)	mass density ([2]; 288.15 K, 100.5 kPa) [kg/m3]	viscosity ([2]; 288.15 K, 100.5 kPa) [mPa·s]	mass density ([2]; 298.15 K, 100.5 kPa) [kg/m3]	viscosity ([2]; 298.15 K, 100.5 kPa) [mPa·s]	mass density ([2]; 308.15 K, 100.5 kPa) [kg/m3]	viscosity ([2]; 308.15 K, 100.5 kPa) [mPa·s]	other results
CC(C)CC(C)(C)C [2,2,4-trimethylpentane]	1.39404 ± 0.00031	1.389 ± 0.00031	1.38395 ± 0.00031	695.95 ± 0.31	0.537 ± 0.007	687.74 ± 0.31	0.48 ± 0.007	679.43 ± 0.32 kg/m3 and 679.41 ± 0.32 kg/m3	0.432 ± 0.007	–	–	–	–	–	–	–	–	–	–
CC(C)CC(C)(C)C [2,2,4-trimethylpentane] + CC(C)OC(C)C	–	–	–	–	–	–	–	–	–	1.39404 ± 0.00031	1.389 ± 0.00031	1.38395 ± 0.00031	–	–	–	–	–	–	viscosity ([3]; 288.15 K, 100.8 kPa, x2 = 0): 0.537 ± 0.007 mPa·s; mass density ([3]; 288.15 K, 100.8 kPa, x2 = 0): 695.95 ± 0.31 kg/m3; viscosity ([3]; 298.15 K, 100.8 kPa, x2 = 0): 0.48 ± 0.007 mPa·s; mass density ([3]; 298.15 K, 100.8 kPa, x2 = 0): 687.74 ± 0.31 kg/m3; viscosity ([3]; 308.15 K, 100.8 kPa, x2 = 0): 0.432 ± 0.007 mPa·s; mass density ([3]; 308.15 K, 100.8 kPa, x2 = 0): 679.43 ± 0.32 kg/m3
CC(C)OC(C)C [diisopropyl ether]	1.37093 ± 0.00032	1.36524 ± 0.00032	1.35944 ± 0.00032	729.09 ± 0.3	0.348 ± 0.007	718.7 ± 0.3	0.313 ± 0.006	708.12 ± 0.31 kg/m3	0.283 ± 0.006	–	–	–	729.09 ± 0.3	0.348 ± 0.007	718.7 ± 0.3	0.313 ± 0.006	708.12 ± 0.31	0.283 ± 0.006	–
CCO [ethanol]	1.36342 ± 0.00031	1.35924 ± 0.00031	1.35502 ± 0.00031	793.74 ± 0.23	1.309 ± 0.011	785.17 ± 0.23	1.084 ± 0.009	776.49 ± 0.24 kg/m3	0.905 ± 0.008	–	–	–	793.74 ± 0.23	1.309 ± 0.009	785.17 ± 0.23	1.084 ± 0.009	776.49 ± 0.24	0.905 ± 0.008	–
CCO [ethanol] + CC(C)CC(C)(C)C	–	–	–	–	–	–	–	–	–	–	–	–	–	–	–	–	–	–	viscosity ([3]; 288.15 K, 100.8 kPa, x1 = 1): 1.309 ± 0.011 mPa·s; mass density ([3]; 288.15 K, 100.8 kPa, x1 = 1): 793.74 ± 0.23 kg/m3; viscosity ([3]; 298.15 K, 100.8 kPa, x1 = 1): 1.084 ± 0.009 mPa·s; mass density ([3]; 298.15 K, 100.8 kPa, x1 = 1): 785.17 ± 0.23 kg/m3; viscosity ([3]; 308.15 K, 100.8 kPa, x1 = 1): 0.905 ± 0.008 mPa·s; mass density ([3]; 308.15 K, 100.8 kPa, x1 = 1): 776.49 ± 0.24 kg/m3; refractive index ([4]; 288.15 K, x1 = 1): 1.36342 ± 0.00031; refractive index ([4]; 298.15 K, x1 = 1): 1.35924 ± 0.00031; refractive index ([4]; 308.15 K, x1 = 1): 1.35502 ± 0.00031
CCO [ethanol] + CC(C)OC(C)C	–	–	–	–	–	–	–	–	–	1.36342 ± 0.00031	1.35924 ± 0.00031	1.35502 ± 0.00031	–	–	–	–	–	–	viscosity ([3]; 288.15 K, 100.5 kPa, x2 = 0): 1.309 ± 0.009 mPa·s; mass density ([3]; 288.15 K, 100.5 kPa, x2 = 0): 793.74 ± 0.23 kg/m3; viscosity ([3]; 298.15 K, 100.5 kPa, x2 = 0): 1.084 ± 0.009 mPa·s; mass density ([3]; 298.15 K, 100.5 kPa, x2 = 0): 785.17 ± 0.23 kg/m3; viscosity ([3]; 308.15 K, 100.5 kPa, x2 = 0): 0.905 ± 0.008 mPa·s; mass density ([3]; 308.15 K, 100.5 kPa, x2 = 0): 776.49 ± 0.24 kg/m3

From the NIST ThermoML archive (doi:10.1021/je050367p)
